Reference: patent publication US8183414B2, “N-(1-phenyl-2-arylethyl)-4,5-dihydro-2H-pyrrol-5-amine compounds as subtype selective modulators of ALPHA2B or ALPHA2B and ALPHA2C adrenoceptors” (Allergan, Inc., priority 2008, dated 2012)
Where two headings read alike, the source gives them in different places.

Tests used:
Type in all cases: cell-based
α2B adrenergic receptor = target: T1, α2B adrenergic receptor (Homo sapiens, UniProt P18089); assay: RSAT (Receptor Selection and Amplification Technology) assay, α2B; conditions: for EC50 / RSAT EC50 α2B: cells expressing the receptor alone, receptor-mediated growth response, NA = not active; for RSAT Rel Eff α2B: relative efficacy compared to a standard full agonist
T1 construct: expressed in transfected cells
T1 sequence (P18089 1-450): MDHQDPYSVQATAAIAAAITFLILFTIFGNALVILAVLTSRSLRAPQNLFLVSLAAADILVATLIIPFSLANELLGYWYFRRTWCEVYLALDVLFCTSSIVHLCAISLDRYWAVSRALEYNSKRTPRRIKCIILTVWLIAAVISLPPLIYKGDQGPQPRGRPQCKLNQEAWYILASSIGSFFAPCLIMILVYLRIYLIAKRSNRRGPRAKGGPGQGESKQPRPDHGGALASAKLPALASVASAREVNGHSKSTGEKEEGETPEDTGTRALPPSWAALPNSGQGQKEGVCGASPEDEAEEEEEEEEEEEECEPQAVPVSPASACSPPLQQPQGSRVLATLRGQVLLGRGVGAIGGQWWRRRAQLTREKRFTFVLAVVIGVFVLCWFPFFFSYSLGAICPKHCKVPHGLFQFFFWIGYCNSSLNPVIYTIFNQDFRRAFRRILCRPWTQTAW
Procedure: (§1) Cells expressing each of the alpha-2 adrenergic receptors alone were incubated with the various compounds and a receptor-mediated growth response was measured.

α2C adrenergic receptor = target: T2, α2C adrenergic receptor (Homo sapiens, UniProt P18825); assay: RSAT (Receptor Selection and Amplification Technology) assay, α2C; conditions: for EC50: cells expressing the receptor alone, receptor-mediated growth response, NA = not active; for RSAT Rel Eff α2C: relative efficacy compared to a standard full agonist
T2 construct: expressed in transfected cells
T2 sequence (P18825 1-462): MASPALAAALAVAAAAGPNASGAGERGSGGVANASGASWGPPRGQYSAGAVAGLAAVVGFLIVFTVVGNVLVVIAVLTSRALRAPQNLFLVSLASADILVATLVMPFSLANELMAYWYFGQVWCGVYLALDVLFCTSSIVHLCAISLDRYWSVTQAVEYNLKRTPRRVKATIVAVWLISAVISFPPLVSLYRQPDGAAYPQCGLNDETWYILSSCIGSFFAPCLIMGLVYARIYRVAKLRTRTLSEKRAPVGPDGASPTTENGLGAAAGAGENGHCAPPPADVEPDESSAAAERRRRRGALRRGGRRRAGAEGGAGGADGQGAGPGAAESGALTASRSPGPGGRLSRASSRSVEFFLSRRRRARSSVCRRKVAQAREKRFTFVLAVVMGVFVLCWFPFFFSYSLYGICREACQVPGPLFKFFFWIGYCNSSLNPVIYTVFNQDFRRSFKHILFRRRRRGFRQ
Procedure: as §1

α2A adrenergic receptor = target: T3, α2A adrenergic receptor (Homo sapiens, UniProt P08913); assay: RSAT (Receptor Selection and Amplification Technology) assay, α2A
T3 construct: expressed in transfected cells
T3 sequence (P08913 1-465): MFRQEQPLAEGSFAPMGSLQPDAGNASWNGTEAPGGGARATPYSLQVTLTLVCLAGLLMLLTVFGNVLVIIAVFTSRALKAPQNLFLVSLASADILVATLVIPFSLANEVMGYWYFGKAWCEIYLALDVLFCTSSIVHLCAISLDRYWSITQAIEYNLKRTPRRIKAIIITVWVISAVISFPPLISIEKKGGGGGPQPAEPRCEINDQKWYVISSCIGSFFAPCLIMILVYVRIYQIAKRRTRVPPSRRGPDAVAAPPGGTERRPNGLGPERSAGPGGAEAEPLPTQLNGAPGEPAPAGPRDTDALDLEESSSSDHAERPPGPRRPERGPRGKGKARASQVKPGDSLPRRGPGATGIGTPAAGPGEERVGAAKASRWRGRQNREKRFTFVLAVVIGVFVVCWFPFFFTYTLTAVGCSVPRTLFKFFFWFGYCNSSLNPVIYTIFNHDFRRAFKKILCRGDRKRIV
Procedure: Novel compounds having this general structure were synthesized and tested for alpha adrenergic activity using the Receptor Selection and Amplification Technology (RSAT) assay (Messier et. al., 1995, Pharmacol. Toxicol. 76, pp. 308-311). Cells expressing each of the alpha-2 adrenergic receptors alone were incubated with the various compounds and a receptor-mediated growth response was measured. The compounds activity is described as its EC50 and relative efficacy compared to a standard full agonist.

Row | SMILES | EC50 (α2B adrenergic receptor; read-out: RSAT EC50 α2B) | RSAT Rel Eff α2B (α2B adrenergic receptor) | EC50 (α2C adrenergic receptor) | RSAT Rel Eff α2C (α2C adrenergic receptor) | also measured
1 | Cc1cccc(C(Cc2ccncc2)NC2=NCCC2)c1C (single isomer, unassigned) [Compound 18] | 3.1 nM | (0.93) | 19.6 nM | (0.43) | –
2 | Cc1cccc(C(Cc2ccncc2)NC2=NCCC2)c1C (single isomer, unassigned) [Compound 19] | 210 nM | (0.58) | – | – | –
3 | Clc1cccc(C(Cc2ccncc2)NC2=NCCC2)c1Cl (centres unmarked) [Compound 1] | 8.9 nM | (1.25) | 48.4 nM | (0.59) | –
4 | Cc1cccc(C(Cc2ccncc2)NC2=NCCC2)c1C (centres unmarked) [Compound 2] | 8.7 nM | (1.04) | 84.8 nM | (0.37) | –
5 | c1ccc(CC(NC2=NCCC2)c2ccccc2)cc1 (centres unmarked) [Compound 3] | 21.3 nM | (0.63) | 14.1 nM | (0.36) | –
6 | Clc1ccccc1C(Cc1ccncc1)NC1=NCCC1 (centres unmarked) [Compound 4] | 38.4 nM | (0.57) | 10.3 nM | (0.56) | –
7 | Fc1c(Cl)cccc1C(Cc1ccncc1)NC1=NCCC1 (centres unmarked) [Compound 5] | 10.8 nM | (0.94) | – | – | –
8 | Cc1cccc(C(Cc2ccccc2)NC2=NCCC2)c1C (centres unmarked) [Compound 6] | 2.9 nM | (0.72) | – | – | –
9 | Clc1cccc(C(Cc2ccccc2)NC2=NCCC2)c1Cl (centres unmarked) [Compound 7] | 6.6 nM | (0.88) | – | – | –
10 | Clc1cccc(C(Cc2ccccc2)NC2=NCCC2)c1 (centres unmarked) [Compound 8] | 11.6 nM | (0.71) | – | – | –
11 | Cc1ccccc1CC(NC1=NCCC1)c1cccc(Cl)c1 (centres unmarked) [Compound 9] | 3.2 nM | (0.62) | 2.8 nM | – | –
12 | Clc1ccccc1C(Cc1ccccc1)NC1=NCCC1 (centres unmarked) [Compound 10] | 12 nM | (0.51) | 13.3 nM | (0.37) | –
13 | Fc1ccc(CC(NC2=NCCC2)c2cccc(Cl)c2Cl)cc1 (centres unmarked) [Compound 11] | 8 nM | (0.80) | – | – | –
14 | Clc1cccc(C(Cc2ccccc2Br)NC2=NCCC2)c1Cl (centres unmarked) [Compound 12] | 8.7 nM | (0.96) | – | – | –
15 | COc1cccc(CC(NC2=NCCC2)c2cccc(Cl)c2Cl)c1 (centres unmarked) [Compound 13] | 4 nM | (0.97) | 12.9 nM | (0.36) | –
16 | Fc1c(Cl)cccc1C(Cc1ccccc1)NC1=NCCC1 (centres unmarked) [Compound 14] | 8.6 nM | (0.96) | 6.3 nM | (0.36) | –
17 | Cc1c(F)cccc1CC(NC1=NCCC1)c1cccc(Cl)c1Cl (centres unmarked) [Compound 15] | 12.8 nM | (0.70) | – | – | –

Row | SMILES | EC50 (α2B adrenergic receptor; read-out: RSAT EC50 α2B) | RSAT Rel Eff α2B (α2B adrenergic receptor) | EC50 (α2C adrenergic receptor) | RSAT Rel Eff α2C (α2C adrenergic receptor) | also measured
18 | Clc1ccc(Cl)c(CC(NC2=NCCC2)c2cccc(Cl)c2Cl)c1 (centres unmarked) [Compound 16] | 10.5 nM | (1.04) | 12.5 nM | (0.35) | –
19 | Fc1cccc(Cl)c1CC(NC1=NCCC1)c1cccc(Cl)c1Cl (centres unmarked) [Compound 17] | 19.5 nM | (0.73) | – | – | –
20 | Clc1cc(Cl)cc(CC(NC2=NCCC2)c2cccc(Cl)c2Cl)c1 (centres unmarked) [Compound 20] | 2.2 nM | (1.18) | 17.1 nM | (0.46) | –
21 | c1ccc(C(Cc2ccncc2)NC2=NCCC2)cc1 (centres unmarked) [Compound 21] | 59.2 nM | (0.81) | 39.6 nM | (0.34) | –
22 | Clc1ccc(CC(NC2=NCCC2)c2cccc(Cl)c2Cl)c(Cl)c1 (centres unmarked) [Compound 22] | 7.1 nM | (1.03) | – | – | –
23 | Clc1cccc(C(CCc2ccccc2)NC2=NCCC2)c1Cl (centres unmarked) [Compound 23] | 57 nM | (0.69) | – | – | –
24 | c1ccc(C(Cc2ccccn2)NC2=NCCC2)cc1 (centres unmarked) [Compound 24] | 214 nM | (0.44) | – | – | –
25 | c1ccc(C(Cc2cccnc2)NC2=NCCC2)cc1 (centres unmarked) [Compound 25] | 81.7 nM | (0.74) | – | – | –
26 | Clc1ccc(CC(NC2=NCCC2)c2cccc(Cl)c2Cl)cc1Cl (centres unmarked) [Compound 26] | 8.6 nM | (0.93) | – | – | –
27 | Cc1cccc(C(Cc2cccnc2)NC2=NCCC2)c1C (centres unmarked) [Compound 27] | – | (1.04) | – | – | RSAT EC50 α2B (α2B adrenergic receptor): Potent
28 | Clc1cccc(C(Cc2cccnc2)NC2=NCCC2)c1Cl (centres unmarked) [Compound 28, N-(1-(2,3-dichlorophenyl)-2-(pyridin-3-yl)ethyl)-3,4-dihydro-2H-pyrrol-5-amine] | – | (1.19) | – | – | RSAT EC50 α2B (α2B adrenergic receptor): Potent
29 | Cc1cncc(CC(NC2=NCCC2)c2cccc(Cl)c2)c1 (centres unmarked) [Compound 29] | – | (1.1) | 29.8 nM | (0.36) | RSAT EC50 α2B (α2B adrenergic receptor): Potent; EC50 (α2A adrenergic receptor; cells expressing the receptor alone, receptor-mediated growth response, NA = not active): 293 nM; RSAT Rel Eff α2A (α2A adrenergic receptor; relative efficacy compared to a standard full agonist): (0.31)
30 | Clc1cccc(C(Cc2cccnc2Cl)NC2=NCCC2)c1 (centres unmarked) [Compound 30] | – | (1.09) | – | – | RSAT EC50 α2B (α2B adrenergic receptor): Potent
31 | Clc1cccc(C(Cc2ccc(Cl)nc2)NC2=NCCC2)c1 (centres unmarked) [Compound 31] | – | (0.84) | – | – | EC50 (α2B adrenergic receptor; RSAT EC50 α2B): 67.2 nM
32 | Cc1c(Br)cncc1CC(NC1=NCCC1)c1cccc(Cl)c1 (centres unmarked) [Compound 32] | 11.2 nM | (0.92) | – | – | –
33 | Cc1cncc(CC(NC2=NCCC2)c2cccc(Cl)c2)c1C (centres unmarked) [Compound 33] | 19.9 nM | (0.91) | – | – | –
34 | Cc1cccc(C(Cc2cncc(C)c2C)NC2=NCCC2)c1 (centres unmarked) [Compound 34] | 5.1 nM | (0.85) | – | – | –
